Experimental data as given in article PMC7700809 (Molecular Biomedicine, 2020).

What was measured:
[1] = In vivo plasma pharmacokinetics in mice; settings: for MRT last: read-out: MRT0-t; for MRT inf: read-out: MRT0-∞
Protocol: (§1) After dosage, blood samples were collected into heparinized tubes at 2, 5, 15, 30, 60, 120, 240, 360, 540, and 720 min for the i.v. group, and at 5, 15, 30, 60, 90, 120, 240, 360, 540, 720 and 1440 min for the i.g. group. Plasma (100 μL) was isolated from the blood sample by centrifuging at 4 °C and 6000 rpm for 3 min and then stored at − 80 °C until analysis. An aliquot of 100 μL of each plasma sample was mixed with 20 μL of internal standard working solution (200 ng/mL of caffeine). Methanol (400 μL) was then added for precipitation. After vortexing for 5 min and centrifuging at 14000 rpm for 10 min, 5 μL of the supernatant was injected for LC-MS/MS analysis.
(§2) The PK parameters were analyzed through the noncompartment model using WinNonlin 6.1 software (Pharsight Corporation, Mountain View, USA), including half-life (T1/2), the peak of the plasma concentration (Cmax), the time to peak of the plasma concentration (Tmax), the area under the plasma concentration-time curve during the period of observation (AUC0-t), the area under the plasma concentration-time curve from zero to infinity (AUC0-∞), clearance (CL), apparent volume of distribution (Vd), and the mean residence time.

[2] = system: TNF-α; test: TNF-α protein level in M1 polarized THP-1 macrophages (ELISA); format: cell-based, Human; settings: 0.1 μM, 36 h
Protocol: Results are expressed as means ±S.D. (n = 3).
Human monocytic THP-1 cells were maintained in RPMI 1640 medium (Corning, USA) supplemented with 2% L-glutamine,10% fetal bovine serum (FBS), 1% penicillin/ streptomycin and […] ß-mercaptoethanol. THP-1 monocytes are differentiated into macrophages by 24 h incubation with 150 nM phorbol 12-myristate 13-acetate (PMA, Sigma, P8139) followed by 24 h incubation in RPMI medium. Macrophages were polarized in M1 macrophages by incubation with 20 ng/ml of IFN-γ (R&D system, #285-IF) and 100 ng/ml of LPS (Sigma, #8630). […] Cytokine secretion in the culture medium was assayed using an ELISA kit according to the procedure recommended by the supplier (IL-6 (MultiSciences, 70-EK106/2–96), TNFα (MultiSciences,70-EK182HS-96)).

[3] = in vivo; settings: Sprague-Dawley, rat, lung, po
[4] = system: SARS-CoV-2 specific nucleocapsid; test: Western blot analysis of nucleocapsid level in Vero cells; format: cell-based
[5] = In vivo plasma pharmacokinetics in beagle dogs; settings: Dog; for MRT last: read-out: MRT0-t; for MRT inf: read-out: MRT0-∞
Protocol: as §1, §2

[6] = Lung distribution in mice after oral administration
[7] = in vivo; settings: mouse, iv, 1 mg/kg, I.V. 1 mg/kg; for AUC(0-inf): AUC0-∞; for AUC(0-inf) / AUC(0-t) / Cmax / MRT last / MRT inf / Tmax: mice; for AUC(0-t): AUC0-t; for MRT last: MRT0-t; for MRT inf: MRT0-∞; for half-life: T1/2, mice
[8] = system: SARS-CoV-2; test: microbe, parasite or virus in culture; format: cell-based; settings: Severe acute respiratory syndrome coronavirus 2, Vero; read-out: EC50 antiviral replication effect
[9] = in vivo; settings: male, mouse, lung, po
[10] = in vitro; settings: African green monkey

With CC[C@H]1CN2CCc3cc(OC)c(OC)cc3[C@@H]2C[C@@H]1C[C@H]1NCCc2cc(OC)c(OC)cc21 [Emetine] the AUMC0-t ([1]; I.V. 1 mg/kg) was 616 ± 181 hr*hr.*ng/mL, the “AUMC0-∞” value ([1]; I.V. 1 mg/kg) was 3472 ± 1149 hr*hr.*ng/mL and the AUMC0-t ([1]; P.O. 10 mg/kg) was 8355 ± 2710 hr*hr.*ng/mL. For the same compound, the “AUMC0-∞” value ([1]; P.O. 10 mg/kg) was 36,666 ± 31,176 hr*hr.*ng/mL, the Cl ([1]; P.O. 10 mg/kg) was 143.5 ± 64.88 mL/min/kg and the Vz ([1]; P.O. 10 mg/kg) was 174,470 ± 45,790 mL/kg. The AUC(0-inf) ([1]; male, mouse, iv, I.V. 1 mg/kg) was 258 ± 71 ng·h/mL, the AUC(0-t) ([1]; male, mouse, iv, I.V. 1 mg/kg) was 120 ± 26 ng·h/mL and the C0 ([1]; male, mouse, iv, I.V. 1 mg/kg) was 172 ± 86 ng/mL. It also gave a Cmax ([1]; male, mouse, iv, I.V. 1 mg/kg) of 111 ± 13.5 ng/mL, a Tmax ([1]; male, mouse, iv, I.V. 1 mg/kg) of 0.03 h and a clearance ([1]; male, mouse, iv, I.V. 1 mg/kg) of 68.6 mL/min/kg. It also gave a half-life ([1]; male, mouse, iv, I.V. 1 mg/kg) of 6.24 ± 1.17 h, an MRT last ([1]; male, mouse, iv, I.V. 1 mg/kg) of 5.06 ± 0.57 h and an MRT inf ([1]; male, mouse, iv, I.V. 1 mg/kg) of 13.4 ± 1.37 h. For the same compound, the Vd ([1]; male, mouse, iv, I.V. 1 mg/kg, read-out: Vz) was 38.4 L/kg, the AUC(0-inf) ([1]; male, mouse, po, P.O. 10 mg/kg) was 1340 ± 625 ng·h/mL and the AUC(0-t) ([1]; male, mouse, po, P.O. 10 mg/kg) was 811 ± 208 ng·h/mL. It also gave a Cmax ([1]; male, mouse, po, P.O. 10 mg/kg) of 61.6 ± 15.1 ng/mL, a Tmax ([1]; male, mouse, po, P.O. 10 mg/kg) of 1.67 ± 0.58 h and a half-life ([1]; male, mouse, po, P.O. 10 mg/kg) of 15.9 ± 8.22 h. It also gave a bioavailability ([1]; male, mouse, po, P.O. 10 mg/kg vs I.V. 1 mg/kg, read-out: F (oral bioavailability)) of 52.1 ± 24.2%, an MRT last ([1]; male, mouse, po, P.O. 10 mg/kg) of 10.2 ± 1.31 h and an MRT inf ([1]; male, mouse, po, P.O. 10 mg/kg) of 24.3 ± 10 h. The TNF-α expression [2] was “moderate effect”, the Tmax ([3]; 1 mg/kg) was 12 h and the concentration at 12 h ([3]; 1 mg/kg) was 1610 nM. For the same compound, the concentration at 72 h ([3]; 1 mg/kg) was 360 nM, the concentration at 1 h ([3]; 1 mg/kg/day) was 5000 to 6000 nM and the concentration at 72 h ([3]; 1 mg/kg/day) was 4890 nM. For the same compound, the “SARS-CoV-2 specific nucleocapsid level, anti-replication effect” value ([4]; Vero cells infected […], then drug 24 h) was “dose-dependently decreased”, the “SARS-CoV-2 specific nucleocapsid level, anti-entry effect” value ([4]; Vero cells pretreated with drug […], virus […], 24 h) was “confirmed this trend” and the AUMC0-t ([5]; I.V. 1 mg/kg) was 1331 ± 695 hr*hr.*ng/mL. For the same compound, the “AUMC0-∞” value ([5]; I.V. 1 mg/kg) was 1626 ± 679 hr*hr.*ng/mL, the AUMC0-t ([5]; P.O. 5 mg/kg) was 12,464 ± 9313 hr*hr.*ng/mL and the “AUMC0-∞” value ([5]; P.O. 5 mg/kg) was 19,162 ± 13,435 hr*hr.*ng/mL. For the same compound, the Cl ([5]; P.O. 5 mg/kg) was 72.95 ± 62.47 mL/min/kg, the Vz ([5]; P.O. 5 mg/kg) was 51,033 ± 45,021 mL/kg and the AUC(0-inf) ([5]; beagle, iv, I.V. 1 mg/kg) was 468 ± 298 ng·h/mL. The AUC(0-t) ([5]; beagle, iv, I.V. 1 mg/kg) was 449 ± 298 ng·h/mL, the C0 ([5]; beagle, iv, I.V. 1 mg/kg) was 351 ± 44 ng/mL and the Cmax ([5]; beagle, iv, I.V. 1 mg/kg) was 260 ± 66.7 ng/mL. The Tmax ([5]; beagle, iv, I.V. 1 mg/kg) was 0.03 h, the clearance ([5]; beagle, iv, I.V. 1 mg/kg) was 45.8 mL/min/kg and the half-life ([5]; beagle, iv, I.V. 1 mg/kg) was 2.45 ± 0.91 h. The MRT last ([5]; beagle, iv, I.V. 1 mg/kg) was 3.2 ± 0.78 h, the MRT inf ([5]; beagle, iv, I.V. 1 mg/kg) was 3.82 ± 0.86 h and the Vd ([5]; beagle, iv, I.V. 1 mg/kg, read-out: Vz) was 9.55 ± 5.26 L/kg. For the same compound, the AUC(0-inf) ([5]; beagle, po, P.O. 5 mg/kg) was 1740 ± 1080 ng·h/mL, the AUC(0-t) ([5]; beagle, po, P.O. 5 mg/kg) was 1550 ± 964 ng·h/mL and the Cmax ([5]; beagle, po, P.O. 5 mg/kg) was 245 ± 164 ng/mL. The Tmax ([5]; beagle, po, P.O. 5 mg/kg) was 0.25 h, the half-life ([5]; beagle, po, P.O. 5 mg/kg) was 7.99 ± 0.35 h and the bioavailability ([5]; beagle, po, P.O. 5 mg/kg vs I.V. 1 mg/kg, read-out: F (oral bioavailability)) was 74.2 ± 46.2%. It also gave an MRT last ([5]; beagle, po, P.O. 5 mg/kg) of 7.63 ± 1.32 h, an MRT inf ([5]; beagle, po, P.O. 5 mg/kg) of 10.7 ± 1.21 h and a Mice lung con. ([6]; 1 mg/kg (P.O.) single dose, 1 h) of 0.23 ± 0.04 ng/mL. For the same compound, the Mice lung con. ([6]; 1 mg/kg (P.O.) single dose, 2 h) was 0.50 ± 0.35 ng/mL, the Mice lung con. ([6]; 1 mg/kg (P.O.) single dose, 4 h) was 0.81 ± 0.16 ng/mL and the Mice lung con. ([6]; 1 mg/kg (P.O.) single dose, 6 h) was 1.06 ± 0.09 ng/mL. The Mice lung con. ([6]; 1 mg/kg (P.O.) single dose, 9 h) was 1.75 ± 0.28 ng/mL, the Mice lung con. ([6]; 1 mg/kg (P.O.) single dose, 24 h) was 1.13 ± 0.18 ng/mL and the Mice lung con. ([6]; 1 mg/kg (P.O.) single dose, 48 h) was 0.61 ± 0.09 ng/mL. For the same compound, the Mice lung con. ([6]; 1 mg/kg (P.O.) single dose, 72 h) was 0.23 ± 0.06 ng/mL, the Mice lung con. ([6]; 1 mg/kg (Q.D.× 3 days, P.O.), 1 h) was 6.17 ± 1.54 ng/mL and the Mice lung con. ([6]; 1 mg/kg (Q.D.× 3 days, P.O.), 2 h) was 6.44 ± 0.96 ng/mL. It also gave a Mice lung con. ([6]; 1 mg/kg (Q.D.× 3 days, P.O.), 4 h) of 6.73 ± 0.40 ng/mL, a Mice lung con. ([6]; 1 mg/kg (Q.D.× 3 days, P.O.), 6 h) of 7.14 ± 2.10 ng/mL and a Mice lung con. ([6]; 1 mg/kg (Q.D.× 3 days, P.O.), 9 h) of 7.46 ± 0.89 ng/mL. For the same compound, the Mice lung con. ([6]; 1 mg/kg (Q.D.× 3 days, P.O.), 12 h) was 7.26 ± 0.93 ng/mL, the Mice lung con. ([6]; 1 mg/kg (Q.D.× 3 days, P.O.), 24 h) was 4.61 ± 0.84 ng/mL and the Mice lung con. ([6]; 1 mg/kg (Q.D.× 3 days, P.O.), 72 h) was 2.17 ± 0.42 ng/mL. The “retention time in lung tissue” value ([6]; in vivo animal PK study, species not named at the place) was “over 12 h”, the “time of maximum lung concentration” value ([6]; mice, 1 mg/kg single oral dose) was 12 h and the “time of maximum lung concentration (Cmax)” value ([6]; mice, 1 mg/kg/day oral 3 days) was 9 h. It also gave an AUC(0-inf) ([7]; male, Kidney) of 99100 ng·h/mL, an AUC(0-inf) ([7]; male, Lung) of 65400 ng·h/mL and an AUC(0-t) ([7]; Kidney) of 37000 ng·h/mL. It also gave an AUC(0-t) ([7]; Liver) of 41300 ng·h/mL, an AUC(0-t) ([7]; Lung) of 35400 ng·h/mL and an AUC(0-inf) ([7]; Liver) of 139000 ng·h/mL. For the same compound, the Cmax ([7]; Kidney) was 4550 ng/mL, the Cmax ([7]; Liver) was 4420 ng/mL and the Cmax ([7]; Lung) was 8580 ng/mL. For the same compound, the MRT last ([7]; Kidney) was 5.23 h, the MRT last ([7]; Liver) was 6.67 h and the MRT last ([7]; Lung) was 5.13 h. The MRT inf ([7]; Kidney) was 28.4 h, the MRT inf ([7]; Liver) was 28 h and the MRT inf ([7]; Lung) was 15.9 h. It also gave a half-life ([7]; Kidney) of 20.9 h, a half-life ([7]; Liver) of 17.3 h and a half-life ([7]; Lung) of 11.5 h. The Tmax ([7]; Kidney) was 0.5 h, the Tmax ([7]; Liver) was 9 h and the Tmax ([7]; Lung) was 0.03 h. It also gave an EC50 [8] of 7 nM, a concentration at 12 h ([9]; 1 mg/kg) of 1800 nM and a concentration at 72 h ([9]; 1 mg/kg) of 230 nM. For the same compound, the concentration at 1 h ([9]; 1 mg/kg/day) was 5000 to 6000 nM, the concentration at 72 h ([9]; 1 mg/kg/day) was 2170 nM and the CC50 [10] was 1960 nM.
